# Assay results from patent publication US12497642B2, “Incorporation of unnatural nucleotides and methods of use in vivo thereof” (THE SCRIPPS RESEARCH INSTITUTE, priority 2017, dated 2025).
# What was measured:
# [1] = tested on: semi-synthetic organism (SSO) (strain YZ3); experiment: Replication and UBP retention in vivo in the semi-synthetic organism (streptavidin biotin shift, PAGE), Example 1; assay type: cell-based, Escherichia coli; conditions: for UBP retention in vivo, in words: dTPT3TP analog paired with dNaMTP, discussion
# Protocol: All bacteria were cultured in 100 μL of liquid 2×YT media (casein peptone 16 g/L, yeast extract 10 g/L, NaCl 5 g/L) supplemented with potassium phosphate (50 mM, pH 7) in 96-well microwell plates. When noted, antibiotics were used at the following concentrations: chloramphenicol, 5 μg/mL; ampicillin, 100 μg/mL. Cell growth, indicated as OD600, was measured using a Perkin Elmer EnVision 2103 Multilabel Reader with a 590/20 nm filter. Unless otherwise stated, molecular biology reagents were purchased from New England Biolabs (Ipswich, MA) and were used according to the manufacturer's protocols. As necessary, purification of nucleic acids was accomplished by micro-elution columns (Zymo Research Corp; Irvine, CA). All natural oligonucleotides were purchased from IDT (San Diego, CA), and oligonucleotides containing dNaM were synthesized by Biosearch Technologies (Petaluma, CA) with purification by reverse phase cartridge. Unnatural nucleotide triphosphates were prepared, and confirmed by MALDI-TOF and UV/Vis.
# Plasmids containing the dNaM-dTPT3 UBP were prepared and used to transform the semi-synthetic organism (SSO). To create a template for in vivo replication assays, Golden Gate assembly was used to construct a derivative of the pUC19 plasmid in which a single dNaM-dTPT3 UBP was embedded within the TK1 sequence ([…]; […]), a context within which the UBP is well replicated in the SSO. Plasmids were then used to transform the SSO (strain YZ3). Following transformation, the SSO was allowed to recover at 37° C. for 1 h in media containing dNaMTP (125 μM) and dTPT3TP (25 μM). Cells were pelleted by centrifugation, resuspended in fresh media lacking unnatural triphosphates, split into 100-μL aliquots and then used to inoculate cultures containing different pairs of unnatural triphosphates at the specified concentrations. When the cell density reached an OD600 of ˜0.7, cells were pelleted and plasmids were recovered and PCR amplified with d5SICSTP and a biotinylated analog of dNaMTP, and UBP retention was determined by comparing the intensity of the streptavidin shifted and unshifted bands via PAGE.
# [2] = PCR amplification in vitro (SAR named in the discussion); assay type: biochemical; conditions: paired with any analog
smiles,measurement,setting,value
O=c1c2cccnc2ccn1C1CC(O)C(COP(=O)(O)OP(=O)(O)OP(=O)(O)O)O1 (stereo not shown) [dNICS],UBP retention,"[1]; context 1, dNaMTP 125 μM, dTPT3TP analog 125 μM",significant UBP retention
same,"UBP retention in vivo, in words",[1],supports UBP retention reasonably well
same,"UBP retention in vivo, in words",[1]; listed as dNICSTP,reasonable retention in vivo
same,PCR amplification,[2],do not support PCR amplification
